For one data set, the system named is Klebsiella pneumoniae. Kind of data set: Antibacterial activity against Klebsiella pneumoniae ATCC 10031 after 24 hr by broth microdilution method. The data set is classed as functional. Conditions: ATCC 10031, 24 h.
The next data set concerns Staphylococcus aureus. Kind of data set: Antibacterial activity against Staphylococcus aureus ATCC 11632 after 24 hr by broth microdilution method. In kind it is functional. Conditions: ATCC 11632, 24 h.
In another data set the test system is Aspergillus niger. As to the kind of experiment: Antifungal activity against Aspergillus niger ATCC 6275 after 24 hr by broth microdilution method. In kind it is functional. Conditions: ATCC 6275, 24 h.
In a further data set the test system is Candida tropicalis. As to the kind of experiment: Antifungal activity against Candida tropicalis ATCC 1369 after 24 hr by broth microdilution method. In kind it is functional. Conditions: ATCC 1369, 24 h.
A further data set concerns Bacillus subtilis. Kind of data set: Antibacterial activity against Bacillus subtilis ATCC 60511 after 24 hr by broth microdilution method. The data set is classed as functional. Conditions: ATCC 60511, 24 h.
A further data set relates to Pseudomonas aeruginosa. As to the kind of experiment: Antibacterial activity against Pseudomonas aeruginosa ATCC 10145 after 24 hr by broth microdilution method. In kind it is functional. Conditions: ATCC 10145, 24 h.
The test system of another data set is Escherichia coli. Kind of data set: Antibacterial activity against Escherichia coli ATCC 10536 after 24 hr by broth microdilution method. In kind it is functional. Conditions: ATCC 10536, 24 h.
Data set [1] relates to Mycobacterium tuberculosis. Kind of data set: Antitubercular activity against Mycobacterium tuberculosis H37Rv after 21 days by broth microdilution method. In kind it is functional. Conditions: 504 h.
The subject of the next data set is Saccharomyces cerevisiae. As to the kind of experiment: Antifungal activity against Saccharomyces cerevisiae ATCC 9763 after 24 hr by broth microdilution method. In kind it is functional. Conditions: ATCC 9763, 24 h.
In a further data set the test system is Enterococcus faecalis. Kind of data set: Antibacterial activity against Enterococcus faecalis ATCC 14506 after 24 hr by broth microdilution method. In kind it is functional. Conditions: ATCC 14506, 24 h.
Another data set deals with A549. Kind of data set: Cytotoxicity against Homo sapiens (human) A549 cells at […] by MTT assay relative to control. In kind it is cell-based.

Molecules are shown by their SMILES. Converted amounts (≈) assume the structure as drawn. A value given as a limit tells only on which side of the number the result lay.

Turning to `CC(C)c1csc(-c2nnc(S(=O)(=O)Cc3cc(Cl)ccc3F)o2)n1`, the MIC was 4 µg/mL (≈ 9.95 µM) in the data set on Klebsiella pneumoniae; 8 µg/mL (≈ 19.9 µM) against Staphylococcus aureus; 8 µg/mL (≈ 19.9 µM) in the data set on Aspergillus niger; 8 µg/mL (≈ 19.9 µM) against Candida tropicalis; 8 µg/mL (≈ 19.9 µM) in the data set on Bacillus subtilis; 4 µg/mL (≈ 9.95 µM) in the data set on Pseudomonas aeruginosa. For the same molecule, the minimal inhibitory concentration (MIC) against Escherichia coli was 8 µg/mL (≈ 19.9 µM); in [1], 4 µg/mL (≈ 9.95 µM); against Saccharomyces cerevisiae, 16 µg/mL (≈ 39.8 µM); with Enterococcus faecalis it was 31.2 µg/mL (≈ 77.8 µM).

As for `CC(C)c1csc(-c2nnc(S(=O)(=O)Cc3cc(Cl)ccc3F)n2-c2ccccc2)n1`, the MIC against Klebsiella pneumoniae is 8 µg/mL (≈ 16.8 µM); with Staphylococcus aureus, 16 µg/mL (≈ 33.5 µM); with Aspergillus niger, 31.2 µg/mL (≈ 65.5 µM); in the data set with Candida tropicalis, 16 µg/mL (≈ 33.5 µM); in the data set with Bacillus subtilis it was 31.2 µg/mL (≈ 65.5 µM); with Pseudomonas aeruginosa, 8 µg/mL (≈ 16.8 µM). The minimal inhibitory concentration (MIC) is 4 µg/mL (≈ 8.39 µM) with Escherichia coli, 4 µg/mL (≈ 8.39 µM) in data set [1], 16 µg/mL (≈ 33.5 µM) against Saccharomyces cerevisiae and 31.2 µg/mL (≈ 65.5 µM) against Enterococcus faecalis.

With `NNC(=O)c1ccncc1` [ISONIAZID], the MIC in data set [1] was determined as 0.25 µg/mL (≈ 1.82 µM).

For the molecule `CC(C)c1csc(-c2nnc(S(=O)(=O)Cc3ccc(Br)cc3)o2)n1`, the MIC was found to be 8 µg/mL (≈ 18.7 µM) with Klebsiella pneumoniae; 8 µg/mL (≈ 18.7 µM) in the data set on Staphylococcus aureus; 31.2 µg/mL (≈ 73 µM) in the data set with Aspergillus niger; 31.2 µg/mL (≈ 73 µM) in the data set with Candida tropicalis; 31.2 µg/mL (≈ 73 µM) with Bacillus subtilis; 8 µg/mL (≈ 18.7 µM) against Pseudomonas aeruginosa. Further, the MIC came out at 4 µg/mL (≈ 9.34 µM) in the data set on Escherichia coli, 4 µg/mL (≈ 9.34 µM) in data set [1], 62.5 µg/mL (≈ 146 µM) with Saccharomyces cerevisiae and 31.2 µg/mL (≈ 73 µM) in the data set with Enterococcus faecalis.

In the case of `CC(C)c1csc(-c2nnc(S(=O)(=O)Cc3ccc(C(F)(F)F)cc3)n2-c2ccccc2)n1`, the MIC in the data set with Klebsiella pneumoniae worked out at 16 µg/mL (≈ 32.5 µM); with Staphylococcus aureus, 4 µg/mL (≈ 8.12 µM); in the data set on Aspergillus niger, 16 µg/mL (≈ 32.5 µM); in the data set on Candida tropicalis it was 31.2 µg/mL (≈ 63.4 µM); against Bacillus subtilis it was 8 µg/mL (≈ 16.2 µM); in the data set with Pseudomonas aeruginosa it was 16 µg/mL (≈ 32.5 µM). Also, the MIC against Escherichia coli is 16 µg/mL (≈ 32.5 µM); in data set [1], 4 µg/mL (≈ 8.12 µM); against Saccharomyces cerevisiae, 16 µg/mL (≈ 32.5 µM); in the data set with Enterococcus faecalis, 8 µg/mL (≈ 16.2 µM).

On to `OC(Cn1cncn1)(Cn1cncn1)c1ccc(F)cc1F` [FLUCONAZOLE], for which the MIC against Aspergillus niger, in the data set on Candida tropicalis and in the data set on Saccharomyces cerevisiae was no more than 1 µg/mL each time.

For the molecule `CC(C)c1csc(-c2nnc(S(=O)(=O)Cc3ccc(Cl)cc3)n2/N=C/c2ccc(F)cc2)n1`, the MIC against Klebsiella pneumoniae was found to be 31.2 µg/mL (≈ 62 µM); against Staphylococcus aureus it was 8 µg/mL (≈ 15.9 µM); in the data set with Aspergillus niger, 31.2 µg/mL (≈ 62 µM); in the data set with Candida tropicalis, 31.2 µg/mL (≈ 62 µM); in the data set with Bacillus subtilis, 4 µg/mL (≈ 7.94 µM); with Pseudomonas aeruginosa, 16 µg/mL (≈ 31.7 µM). The MIC worked out at 16 µg/mL (≈ 31.7 µM) against Escherichia coli, 8 µg/mL (≈ 15.9 µM) in data set [1], 31.2 µg/mL (≈ 62 µM) against Saccharomyces cerevisiae and 4 µg/mL (≈ 7.94 µM) in the data set with Enterococcus faecalis.

With `CC(C)c1csc(-c2nnc(S(=O)(=O)Cc3ccc(Br)cc3F)n2/N=C/c2ccc(Cl)cc2)n1`, the MIC against Klebsiella pneumoniae worked out at 31.2 µg/mL (≈ 53.6 µM); in the data set on Staphylococcus aureus, 31.2 µg/mL (≈ 53.6 µM); in the data set on Aspergillus niger, 8 µg/mL (≈ 13.7 µM); in the data set on Candida tropicalis it was 8 µg/mL (≈ 13.7 µM); in the data set with Bacillus subtilis it was 8 µg/mL (≈ 13.7 µM); against Pseudomonas aeruginosa it was 16 µg/mL (≈ 27.4 µM). Also, the MIC in the data set with Escherichia coli was 62.5 µg/mL (≈ 107 µM); in data set [1], 8 µg/mL (≈ 13.7 µM); against Saccharomyces cerevisiae, 16 µg/mL (≈ 27.4 µM); in the data set with Enterococcus faecalis, 31.2 µg/mL (≈ 53.6 µM).

As for `CC(C)c1csc(-c2nnc(S(=O)(=O)Cc3ccccc3)n2/N=C/c2c(F)cccc2F)n1`, the MIC was determined as 31.2 µg/mL (≈ 64.1 µM) in the data set on Klebsiella pneumoniae; 4 µg/mL (≈ 8.2 µM) in the data set with Staphylococcus aureus; 8 µg/mL (≈ 16.4 µM) against Aspergillus niger; 16 µg/mL (≈ 32.8 µM) with Candida tropicalis; 62.5 µg/mL (≈ 128 µM) in the data set on Bacillus subtilis; 4 µg/mL (≈ 8.2 µM) in the data set with Pseudomonas aeruginosa. For the same molecule, the MIC against Escherichia coli stood at 31.2 µg/mL (≈ 64.1 µM); in data set [1] it was 4 µg/mL (≈ 8.2 µM); against Saccharomyces cerevisiae it was 8 µg/mL (≈ 16.4 µM); in the data set on Enterococcus faecalis, 8 µg/mL (≈ 16.4 µM).

For `CCn1cc(C(=O)O)c(=O)c2cc(F)c(N3CCNCC3)cc21` [NORFLOXACIN], the MIC is no more than 1 µg/mL in the data set on Klebsiella pneumoniae; no more than 5 µg/mL with Staphylococcus aureus; no more than 1 µg/mL against Bacillus subtilis; no more than 5 µg/mL in the data set with Pseudomonas aeruginosa; no more than 1 µg/mL in the data set on Escherichia coli; no more than 5 µg/mL against Enterococcus faecalis.

Consider `CC(C)c1csc(-c2nnc(S(=O)(=O)Cc3ccc(C(F)(F)F)cc3)n2/N=C/c2ccc(F)cc2)n1`, for which the minimal inhibitory concentration (MIC) in the data set on Klebsiella pneumoniae was found to be 4 µg/mL (≈ 7.44 µM); in the data set on Staphylococcus aureus, 4 µg/mL (≈ 7.44 µM); in the data set with Aspergillus niger, 4 µg/mL (≈ 7.44 µM); against Candida tropicalis, 16 µg/mL (≈ 29.8 µM); against Bacillus subtilis, 8 µg/mL (≈ 14.9 µM); with Pseudomonas aeruginosa it was 8 µg/mL (≈ 14.9 µM). For the same molecule, the MIC against Escherichia coli was determined as 8 µg/mL (≈ 14.9 µM); in data set [1] it was 2 µg/mL (≈ 3.72 µM); against Saccharomyces cerevisiae, 4 µg/mL (≈ 7.44 µM); against Enterococcus faecalis, 8 µg/mL (≈ 14.9 µM). The Activity entry with A549 was “Toxic”.

The values are drawn from ChEMBL document CHEMBL3046455, “Synthesis and pharmacological evaluation of some novel 4-isopropyl thiazole-based sulfonyl derivatives as potent antimicrobial and antitubercular agents” (Med Chem Res, 2013).
